Data from patent US8709419B2, “Combination therapy” (Hoffmann-La Roche, Inc., priority 2010, dated 2014).
Where a name gives a salt, the structure may show the parent alone. Read-outs that look alike come from different tables or passages of the source.

How the values were obtained:
[1] = Toxicity in Example 5 study: body weight change, mortality, gross observation
[2] = test system: Human HT-29 Cell Xenografts; test: HT-29 xenograft mice, Example 4 (Compound I / erlotinib HCl, treatment day 12-29): tumor growth inhibition, regression, survival; assay type: in vivo; settings: for Complete Regression / Partial Regression: animals of 10 per group; for 50% Treatment Days: median survival
Protocol: (§1) Differences between groups were considered to be significant when the probability value (p) was ≦0.05.
(§2) For survival assessment, the percent of increased life space (ILS) was calculated as: 100×[(median survival day of treated group−median survival day of control group)/median survival day of control group]. Median survival was determined utilizing Kaplan Meier survival analysis. […] Differences between groups were considered significant when the probability value (p) was ≦0.05.
(§3) Tumor measurements were taken once or twice per week. All animals were individually followed throughout the experiment.

[3] = Toxicity in Example 6 study: body weight change, mortality, gross observation
[4] = test system: Human HT-29 Cell Xenografts; settings: for tumor regression (partial or complete): Ex.6: Compound I 25 mg/kg bid, cetuximab 40 mg/kg 2x/wk, irinotecan HCl 40 mg/kg q4d x5 monotherapies, cetuximab + irinotecan combination
[5] = test system: Human HT-29 Cell Xenografts; test: HT-29 xenograft mice, Example 5 (Compound I / cetuximab, treatment day 12-34): tumor growth inhibition, regression, survival; assay type: in vivo; settings: for 50% Treatment Days: median survival
Protocol: as §1, §2, §3

[6] = Solubility in water, amorphous versus crystalline form; assay type: physicochemical; settings: amorphous form as compared with the crystalline form
[7] = erlotinib hydrochloride 100 mg/kg qd in combination; Higgins et al., Anticancer Drugs 15:503-12 (2004); cited from earlier work
[8] = Toxicity in Example 4 study: body weight change, mortality, gross observation
Protocol: Erlotinib hydrochloride at 100 mg/kg qd was included as a monotherapy arm for comparison.

[9] = Ex.5: Compound I 25 mg/kg bid po
[10] = Ex.5: Compound I 75 mg/kg bid po
[11] = Ex.4: Compound I 75 mg/kg bid po
[12] = Ex.6: Compound I 25 mg/kg bid po
[13] = Ex.6: Compound I 25 mg/kg bid po, animals of 10 per group
[14] = Ex.5: Compound I 75 mg/kg bid po, animals of 10 per group
[15] = Ex.4: erlotinib HCl 67 mg/kg qd po
[16] = Ex.4: erlotinib HCl 100 mg/kg qd po
[17] = Ex.6: irinotecan HCl 40 mg/kg q4d x5 ip

CCCS(=O)(=O)Nc1ccc(F)c(C(=O)c2c[nH]c3ncc(-c4ccc(Cl)cc4)cc23)c1F [Compound I, propane-1-sulfonic acid {3-[5-(4-chloro-phenyl)-1H-pyrrolo[2,3-b]pyridine-3-carbonyl]-2,4-difluoro-phenyl}-amide]
# animals ≧ 20% BWL [1, 9]: 0
% Change in Body Weight at end of Study Day 34 [1, 9]: 0.1%
Max % Weight Gain [1, 9]: 0.3%
Max % Weight Loss [1, 9]: −2.2%
Mortality [1, 9]: 0
# animals ≧ 20% BWL [1, 10]: 0
% Change in Body Weight at end of Study Day 34 [1, 10]: −0.1%
Max % Weight Gain [1, 10]: 0.7%
Max % Weight Loss [1, 10]: −1.4%
Mortality [1, 10]: 0
% ILS [2, 11]: 100%
% Inhibition end of study Day: 29 [2, 11]: 91%
% T/C end of study Day: 29 [2, 11]: 9%
% Tumor Growth Inhibition [2, 11]: 91%
Mean Tumor Volume (mm^3) End Study [2, 11]: 270.24 mm^3
Complete Regression [2, 11]: 0
Partial Regression [2, 11]: 0
50% Treatment Days [2, 11]: 52 days
# animals ≧ 20% BWL [3, 12]: 0
% Change in Body Weight at end of Study Day 32 [3, 12]: 2.9%
Max % Weight Gain [3, 12]: 3.8%
Max % Weight Loss [3, 12]: −0.6%
Mortality [3, 12]: 0
Complete Regression [4, 13]: 0
Partial Regression [4, 13]: 0
tumor regression (partial or complete) [4]: no regressions
% ILS [5, 9]: 44%
% Inhibition end of study Day: 34 [5, 9]: 74%
% T/C end of study Day: 34 [5, 9]: 26%
% Tumor Growth Inhibition [5, 9]: 74%
Mean Tumor Volume (mm^3) End Study [5, 9]: 615.99 mm^3
50% Treatment Days [5, 9]: 46 days
% ILS [5, 10]: 75%
% Inhibition end of study Day: 34 [5, 10]: 93%
% T/C end of study Day: 34 [5, 10]: 7%
% Tumor Growth Inhibition [5, 10]: 93%
Mean Tumor Volume (mm^3) End Study [5, 10]: 275.66 mm^3
Complete Regression [5, 14]: 0
Partial Regression [5, 14]: 0
50% Treatment Days [5, 10]: 56 days
solubility in water [6]: greater solubility in water

C#Cc1cccc(Nc2ncnc3cc(OCCOC)c(OCCOC)cc23)c1 [Erlotinib HCl, erlotinib hydrochloride]
tolerability in combination (historical) [7]: not well tolerated
# animals ≧ 20% BWL [8, 15]: 0
% Change in Body Weight at end of Study Day 29 [8, 15]: 3.1%
Max % Weight Gain [8, 15]: 3.1%
Max % Weight Loss [8, 15]: 0.1%
Mortality [8, 15]: 0
# animals ≧ 20% BWL [8, 16]: 0
% Change in Body Weight at end of Study Day 29 [8, 16]: 2.9%
Max % Weight Gain [8, 16]: 3.0%
Max % Weight Loss [8, 16]: −1.6%
Mortality [8, 16]: 0
EGFR inhibitor related skin rash ([8]; Ex.4: mice treated with erlotinib hydrochloride, self limiting under continuous treatment): skin rash was common
% ILS [2, 15]: 35%
% Inhibition end of study Day: 29 [2, 15]: 38%
% T/C end of study Day: 29 [2, 15]: 62%
% Tumor Growth Inhibition [2, 15]: 38%
Mean Tumor Volume (mm^3) End Study [2, 15]: 1025.10 mm^3
Complete Regression [2, 15]: 0
Partial Regression [2, 15]: 0
50% Treatment Days [2, 15]: 35 days
% ILS [2, 16]: 38%
% Inhibition end of study Day: 29 [2, 16]: 51%
% T/C end of study Day: 29 [2, 16]: 49%
% Tumor Growth Inhibition [2, 16]: 51%
Mean Tumor Volume (mm^3) End Study [2, 16]: 838.75 mm^3
Complete Regression [2, 16]: 0
Partial Regression [2, 16]: 0
50% Treatment Days [2, 16]: 36 days

CCc1c2c(nc3ccc(OC(=O)N4CCC(N5CCCCC5)CC4)cc13)-c1cc3c(c(=O)n1C2)COC(=O)[C@]3(O)CC [Irinotecan HCl, irinotecan hydrochloride, reference compound]
# animals ≧ 20% BWL [3, 17]: 0
% Change in Body Weight at end of Study Day 32 [3, 17]: 2.7%
Max % Weight Gain [3, 17]: 2.8%
Max % Weight Loss [3, 17]: 0.1%
Mortality [3, 17]: 0
tumor regression (partial or complete) [4]: no regressions
% ILS [4, 17]: 17%
